Source: patent EP0525360B1, “Novel phenylacetamide derivatives and processes for the preparation thereof” (KOREA RESEARCH INSTITUTE OF CHEMICAL TECHNOLOGY, priority 1991, dated 1993)

Assays:
Assay type in all cases: in vivo
KTC-ICR mice = experiment: phenyl-1,4-benzoquinone(PBQ) induced writhing test; settings: Mus musculus
Description: The KTC-ICR mice derived from Charles River Breeding Laboratory in the United States and provided by Experimental Animal Laboratory of Korea Research Institute of Chemical Technology were used as test animals. […] They were tested after having been adjusted to the testing environment for a week. Food and water were given freely; and illumination was maintained on a 12-hour cycle.
Experiments were performed in two ways: that is, the acetic acid induced writhing test and the phenyl-1,4-benzoquinone(PBQ) induced writhing test.
Alternatively, solutions for the PBQ induced writhing test were prepared by dissolving one of the products synthesized in Examples 33 to 46 in a mixture of Tween 80, alcohol and distilled water (1:5:94); and administered orally to the 5 ICR mice for each test in a dose of 0.3mℓ per 30g of body weight. 60 minutes later, 0.02% PBQ solution was administered intraperitoneally in a dose of 0.1mℓ per 30g of body weight of the test animals. 5 minutes thereafter, at the temperature of 40°C, the number of writhings occurred during a period of 5 minutes due to the PBQ solution administered was measured. For comparison, only the mixture of Tween 80, alcohol and distilled water was administered orally to the control group; and, after 60 minutes, the PBQ solution was administered intraperitoneally to the control group in the same manner as mentioned above.
The number of writhings suffered by the test group was compared with that of the control group; and the analgesic effect was measured in terms of the percentage of inhibition of writhing(I. W.). I. W. (%) =(A - B)/(A)x 100 [formula] A : the number of writhings suffered by the control group, B : the number of writhings suffered by the test group.
These ED50 values for the test compounds are shown in the last column of Table 1.

test animals = experiment: Behavior analysis (side-effect or toxicity scores); set-up: key to Sedation / Dyspnoea / Vasodilation / Convulsion / Salivation / Urination: behavior score; higher number = greater side effects; settings: behavior score; for Convulsion / Salivation / Urination: normal value 0; for Dyspnoea / Ptosis / Sedation / Vasodilation: normal value 4
Source text: In order to monitor a harmful side-effect or toxicity of the compounds having the formula(I), various behavioral changes in the test animals were observed. […] The higher the number is, the greater the side effects are.

mice = experiment: Tail-flick test (radiant heat); settings: p. o.
Description: Radiant heat was applied using a beam of high-intensity light focused on a tail spot. The response time, defined as the interval between the onset of the stimulus and the tail flick, was measured electronically(to the nearest 0.1 second). The beam intensity was set at a level giving a mean control reaction time of 3.8±0.4 seconds. […] The percentage of inhibition was determined by the following equation: Inhibition(%) =(Reaction time of the treated group - Reaction time of the control group)/(Reaction time of the control group)x 100 [formula]

[1] = test system: Rats(Sprague-Dawley, female); experiment: Anti-inflammatory test (carrageenin paw edema); settings: Rattus norvegicus, sc, 3 h
Description: Rats(Sprague-Dawley, female) weighing 100 to 120g were used. Twenty minutes after the test drug was administered(s. c.), carrageenin was injected(0.1mℓ of 1% solution, s. c.) in the plantar surface of the right hind paw.
The percentage of inhibition was determined by the following equation: Inhibition(%) =(Volume of the carrageenin treated foot - Volume of the control foot)/(Volume of the contol foot)x 100 [formula]

[2] = test system: Male albino rats(120-170g) of the Charles River Sprague-Dawley strain; experiment: Randall-Selitto test (yeast induced hyperalgesia); settings: rat, in vivo, 3 mg/kg
Description: Randall-Selitto Test was carried out by following the method described in Arch. Int. Pharmacodyn.
Male albino rats(120-170g) of the Charles River Sprague-Dawley strain were used. Inflammation was produced by the injection of 0.1mℓ of a 20% suspension of Brewer's yeast into the plantar surface of the rat's hind foot.
The pain threshold was measured as the pressure in mmHg required to induce the desired response(a sharp audible squeak and/or struggle) when the pressure was applied to the foot. Air pressure from an air line was admitted through a needle valve to a 20mℓ glass syringe and to a pressure gauge which was connected by a T-tube. The syringe was mounted with the plunger downward to which was connected a short bullet-shaped Teflon peg. The pressure was applied to the foot of the rat at the rate of 10 mmHg per second. Drug was given 2 hours after the yeast injection. Two hours after the drug administration, threshold response was determined.
The analgesic activity was determined in terms of the percentage of inhibition of response: Inhibition(%) =(Threshold of the treated group - Threshold of the control group)/(Threshold of the control group)x 100 [formula]

[3] = oral, 0.02% PBQ i.p. 60 minutes later, writhings during 5 minutes, mice 10 to 15g, Examples 33 to 46

| Compound | ED50 (KTC-ICR mice; [3]) | Convulsion (test animals; dose 10mg/Kg) | Salivation (test animals; dose 10mg/Kg) | Urination (test animals; dose 10mg/Kg) | Dyspnoea (test animals; dose 10mg/Kg) | Ptosis (test animals; dose 10mg/Kg) | Convulsion (test animals; dose 25mg/Kg) | Salivation (test animals; dose 25mg/Kg) | Urination (test animals; dose 25mg/Kg) | Dyspnoea (test animals; dose 25mg/Kg) | Ptosis (test animals; dose 25mg/Kg) | Sedation (test animals; dose 25mg/Kg) | Vasodilation (test animals; dose 25mg/Kg) | Convulsion (test animals; dose 50mg/Kg) | Salivation (test animals; dose 50mg/Kg) | Urination (test animals; dose 50mg/Kg) | Dyspnoea (test animals; dose 50mg/Kg) | Ptosis (test animals; dose 50mg/Kg) | Sedation (test animals; dose 50mg/Kg) | Vasodilation (test animals; dose 50mg/Kg) | further results |
| --- | --- | --- | --- | --- | --- | --- | --- | --- | --- | --- | --- | --- | --- | --- | --- | --- | --- | --- | --- | --- | --- |
| NCCOc1ccc(CC(=O)NCCCc2ccc(Cl)cc2)cc1N [Example 39, N-{3-(4-chlorophenyl)propyl}-4-(2-aminoethoxy)-3-aminophenylacetamide] | 77.6 mg/kg | 0 | 0 | 0 | 4 | 4 | 0 | 0 | 0 | 4 | 4 | 4 | 4 | 0 | 0 | 0 | 4 | 4 | 4 | 4 | Sedation (test animals; dose 10mg/Kg): 4; Vasodilation (test animals; dose 10mg/Kg): 4 |
| NCCOc1ccc(CC(=O)NCCCc2ccc(F)cc2)cc1N [Example 40, N-{3-(4-fluorophenyl)propyl}-4-(2-aminoethoxy)-3-aminophenylacetamide] | 37.8 mg/kg | 0 | 0 | 0 | 4 | 4 | 0 | 0 | 0 | 4 | 4 | 4 | 4 | 0 | 0 | 0 | 4 | 4 | 4 | 4 | Inhibition(%) (mice; dose 100 mg/Kg): 50%; Sedation (test animals; dose 10mg/Kg): 4; Vasodilation (test animals; dose 10mg/Kg): 4 |
| NCCOc1ccc(CC(=O)NCCCc2ccc(Cl)c(Cl)c2)cc1N [Example 41, N-{3-(3,4-dichlorophenyl)propyl}-4-(2-aminoethoxy)-3-aminophenylacetamide] | 7.18 mg/kg | – | – | – | – | – | 0 | 0 | 0 | 4 | 4 | 4 | 4 | 0 | 0 | 0 | 4 | 4 | 5 | 4 | Convulsion (test animals; dose 100mg/Kg): 0; Salivation (test animals; dose 100mg/Kg): 0; Urination (test animals; dose 100mg/Kg): 0; Dyspnoea (test animals; dose 100mg/Kg): 5; Ptosis (test animals; dose 100mg/Kg): 5; Sedation (test animals; dose 100mg/Kg): 6; Vasodilation (test animals; dose 100mg/Kg): 4 |
| CC(C(=O)O)c1cccc(C(=O)c2ccccc2)c1 (stereo not drawn) [Ketoprofen] | – | – | – | – | – | – | – | – | – | – | – | – | – | – | – | – | – | – | – | – | ED50 [1]: 7.2 mg/kg |
| CN1CC[C@]23c4c5ccc(O)c4O[C@H]2[C@@H](O)C=C[C@H]3[C@H]1C5 [Morphine] | – | – | – | – | – | – | – | – | – | – | – | – | – | – | – | – | – | – | – | – | Inhibition(%) [2]: 391.7% |
| CCCCCCCC/C=C\CCCCCCCC(=O)NCc1ccc(OCCN)c(OC)c1 [NE-21610, reference compound] | – | 0 | 0 | 0 | 4 | 4 | 0 | 0 | 0 | 4 | 4 | 4 | 4 | 0 | 0 | 0 | 4 | 5 | 5 | 4 | Inhibition(%) (mice; dose 200 mg/Kg): 50%; ED50 (KTC-ICR mice; po, writhing test, inducer (acetic acid or PBQ) not stated for this reference): > 300 mg/kg; Sedation (test animals; dose 10mg/Kg): 4; Vasodilation (test animals; dose 10mg/Kg): 4; Convulsion (test animals; dose 100mg/Kg): 2; Salivation (test animals; dose 100mg/Kg): 0; Urination (test animals; dose 100mg/Kg): 0; Dyspnoea (test animals; dose 100mg/Kg): 6; Ptosis (test animals; dose 100mg/Kg): 7; Sedation (test animals; dose 100mg/Kg): 7; Vasodilation (test animals; dose 100mg/Kg): 4 |
